Test results: patent publication US10300052B2, “Methods for increasing CFTR activity” (THE UAB RESEARCH FOUNDATION, priority 2012, dated 2019)

Tests used:
HBE cells [1] = test: Mucus transport studies (fluorescent beads) in HBE cells; type: cell-based, human; conditions: ivacaftor 10 μM basolateral, co-stimulated with VIP 30 nM, vs control (FIG. 2C)
Protocol: HBE cells were washed with sterile PBS twice 1-2 days prior to addition of PEG beads. Fifty (50) μl of Diamine polyethylene glycol (PEG) coated fluorescent beads (1 μm, Molecular Probes, Eugene, Oreg., 1:500 dilution in PBS) were added to the apical surface by using a microsprayer aerosolizer (Penn-Century Inc Model IA-1B, Wyndmoor, Pa.). Following 24 h incubation, baseline images were obtained and then test compounds added to the basolateral compartment. Mucociliary transport (MCT) images were captured by time-lapse fluorescence imaging at four regions of interest per well located 1 mm from the periphery of the well and at each quadrant using an inverted epifluorescence microscope (Nikon Diaphot, Melvin, N.Y.; 488 nm excitation/519 nm emission). Linear transport rates were computed using Metamoph 7.0 by analyzing 10-15 particles per region (7).

HBE cells [2] = test: Airway surface liquid (ASL) depth measurement by confocal microscopy in HBE monolayers; type: cell-based, human; conditions: ivacaftor 10 μM basolateral, 24 h, confocal (FIGS. 2A, 2B)
Protocol: White scale bars designate 10 μm.
Dotted line indicates ASL depth of a panel of CF HBE cells using the exact same method.
The apical surfaces of HBE cells were washed three times and then test compounds added to the basolateral compartment 24 h prior to labeling. Cells were stained with CMFDA (100 μM) in the cell culture medium for 1 hr. Texas red dye (25 μl at 2 mg/ml in Fc70) was added apically and cells allowed to equilibrate 2 h at 37° C. Transwell membranes were placed in sterile glass bottom dish coated with MEM, and imaged with a Carl Zeiss (Peabody, Mass.) confocal microscope using 20× (numerical aperture 0.88, working distance 0.55 mm) air objective lens. Cells were visualized with DIC optics to evaluate cell morphology before initiating fluorescence microscopy. Subsequently, Zscan confocal fluorescent microscopy images were acquired from the top of the ASL through the top of the cell surface. XZ scans were analyzed using Zen2008 software at four ROI per well each located 1 mm from the filter periphery and at each quadrant; 5 estimates of ASL depth were taken equally dispersed across each ROI (7, 9).

G551D-CFTR = G551D-CFTR (Homo sapiens, UniProt P13569, G551D); conditions: in vitro and in CF subjects harboring the G551D-CFTR defect; reported; cited from earlier work
Chain of G551D-CFTR (P13569 whole entry G551D): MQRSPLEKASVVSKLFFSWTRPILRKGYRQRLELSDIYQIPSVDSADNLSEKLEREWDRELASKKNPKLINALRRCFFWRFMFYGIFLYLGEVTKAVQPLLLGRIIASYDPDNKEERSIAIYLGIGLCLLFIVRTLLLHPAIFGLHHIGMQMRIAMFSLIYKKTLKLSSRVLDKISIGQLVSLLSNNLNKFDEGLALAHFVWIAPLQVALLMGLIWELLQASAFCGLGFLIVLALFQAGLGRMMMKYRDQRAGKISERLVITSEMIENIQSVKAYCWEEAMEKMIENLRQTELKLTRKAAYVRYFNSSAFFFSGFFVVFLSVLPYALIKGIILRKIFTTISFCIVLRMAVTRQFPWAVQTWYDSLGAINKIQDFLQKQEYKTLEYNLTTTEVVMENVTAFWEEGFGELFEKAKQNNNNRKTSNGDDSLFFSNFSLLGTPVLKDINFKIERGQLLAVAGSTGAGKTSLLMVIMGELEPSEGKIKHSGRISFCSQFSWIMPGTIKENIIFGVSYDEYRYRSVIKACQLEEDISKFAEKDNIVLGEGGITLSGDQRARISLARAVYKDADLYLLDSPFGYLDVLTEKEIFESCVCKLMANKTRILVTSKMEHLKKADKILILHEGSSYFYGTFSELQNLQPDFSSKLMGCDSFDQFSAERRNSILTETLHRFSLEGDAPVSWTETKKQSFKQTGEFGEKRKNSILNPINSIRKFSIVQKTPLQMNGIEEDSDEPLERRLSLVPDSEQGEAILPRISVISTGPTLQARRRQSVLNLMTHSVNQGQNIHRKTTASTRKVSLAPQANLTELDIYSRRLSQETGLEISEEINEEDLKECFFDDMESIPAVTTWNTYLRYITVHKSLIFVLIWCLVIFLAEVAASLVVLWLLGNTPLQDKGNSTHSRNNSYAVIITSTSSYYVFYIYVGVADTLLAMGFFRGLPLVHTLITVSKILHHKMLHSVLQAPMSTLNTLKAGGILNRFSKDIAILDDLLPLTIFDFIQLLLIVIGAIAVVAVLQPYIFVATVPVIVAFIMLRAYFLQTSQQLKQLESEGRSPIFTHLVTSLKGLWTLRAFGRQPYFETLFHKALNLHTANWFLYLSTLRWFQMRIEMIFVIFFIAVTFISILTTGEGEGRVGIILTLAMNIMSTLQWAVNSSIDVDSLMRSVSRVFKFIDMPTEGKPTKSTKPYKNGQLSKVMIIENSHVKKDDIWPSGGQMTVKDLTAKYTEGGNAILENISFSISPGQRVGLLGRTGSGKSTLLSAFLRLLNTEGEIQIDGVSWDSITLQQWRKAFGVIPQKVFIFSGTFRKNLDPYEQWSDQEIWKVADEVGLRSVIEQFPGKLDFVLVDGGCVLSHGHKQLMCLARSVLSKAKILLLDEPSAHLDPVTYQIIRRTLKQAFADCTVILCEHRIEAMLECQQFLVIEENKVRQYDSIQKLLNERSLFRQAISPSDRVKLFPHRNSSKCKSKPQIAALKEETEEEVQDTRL

porcine trachea CFTR+/+ = test: μOCT imaging of airway epithelial function in porcine trachea, CFTR+/+ animals; conditions: ivacaftor 10 μM in bath, 37° C. (FIG. 7H)
Text: FIGS. 7A-7H show the effects of CFTR activators on airway epithelial function in intact porcine trachea by μOCT. FIGS. 7A-7B show representative μOCT images for a CFTR−/− (FIG. 7A) and CFTR+/+ (FIG. 7B) animal. FIGS. 7C-7F, respectively, show ASL depth (FIG. 7C), PCL depth (FIG. 7D), CBF (FIG. 7E) and MCT (FIG. 7F) measurements derived from μOCT images from CFTR−/− and CFTR+/+ animals. FIGS. 7G and 7H show the response of epithelial functional parameters, namely ASL depth and MCT in CFTR−/− (FIG. 7G) and CFTR+/+(FIG. 7H) animals in response to sequential pharmacologic intervention by ivacaftor (10 μM), forskolin (100 nM) and acetylcholine (100 μM).
To further investigate the role of CFTR activators in modulating airway epithelial cell function, CFTR activators were studied in combination with porcine trachea. In this example, porcine trachea from animals having a mutated CFTR (CFTR (−/−) and from animals having a WT-CFTR (CFTR+/+) were evaluated for ASL depth, PCL depth, CBF and MCT. The results are shown in FIGS. 7A-7H.
FIGS. 7G and 7H show the response of epithelial functional parameters, namely ASL depth, CBF and MCT in CFTR−/− and CFTR+/+ animals in response to sequential pharmacologic intervention by ivacaftor (10 μM), forskolin (100 nM) and acetylcholine (100 μM); in this experiment, acetylcholine served as a positive control to induce glandular extrusion in CF tissue). In these experiments, agonists were added to the bath solution and all experiments were conducted under physiological conditions (37° C. and 100% humidity). […] In contrast to FIG. 7G, ASL depth, CBF and MCT were all increased in response to ivacaftor treatment in CFTR+/+ animals, consistent with the results described above for human tissue.
Normal piglet tracheas were obtained from Exemplar Genetics (Sioux Center, Iowa). Tissue were dissected from one-day-old piglets and shipped on wet ice in DMEM. A modified protocol based on airway tissue handling and preparation methods developed by Ballard et al. (Am J Physiol Lung Cell Mol Physiol 298: L270-276, 2010) was employed. […]

SMILES: CC(C)(C)c1cc(C(C)(C)C)c(NC(=O)c2c[nH]c3ccccc3c2=O)cc1O [ivacaftor]
- mucus transport (MCT) (HBE cells [1]): markedly increased above baseline
- ASL depth (HBE cells [2]): enhanced
- cAMP mediated ion transport activity of CFTR encoding the gating mutation G551D-CFTR (G551D-CFTR): significantly augment
- ASL depth response (porcine trachea CFTR+/+): increased
- CBF response (porcine trachea CFTR+/+): increased
- MCT response (porcine trachea CFTR+/+): increased
